Experimental findings from publication PMC7893776, “Selecting an anti-malarial clinical candidate from two potent dihydroisoquinolones” (Malaria Journal, 2021) are described below.

Format in all cases: in vitro ADME
A short description of series [1]: Microsomal stability, human. The note with it: human microsomes; for CLint in vitro: independent replicate to Table 4; for CLint in vivo: scaled up using PBSF. How it is done:
(§1) The metabolic stability assay was performed by incubating compounds individually (0.8, 4, or 20 µM) with mouse, rat, dog and human liver microsomes (Fisher, 0.5 mg/mL protein concentration) at 37 °C. The metabolic reaction was initiated by the addition of a NADPH-regenerating system and quenched at various time points by the addition of acetonitrile according to a published method.
(§2) The remaining concentration of each compound was measured as a ratio of peak area to the internal standard. The log peak area ratio was plotted vs. time (h), and the slope was determined to calculate the elimination rate constant [k = (− 2.303) * slope]. If deviation from first order kinetics was evident, only the initial linear portion of the plot was used to determine the rate constate, k. The half-life (h) was calculated as t1/2 = 0.693/k. Intrinsic clearance in vitro was calculated as CLintin vitro = (1000)*(0.693/t1/2*60)/0.5, where microsomal concentration in the reaction solution was 0.5 mg/mL; 1000 and 60 are scaling factors for volume (µL) and time (min), respectively. The intrinsic in vitro clearance was scaled to the intrinsic in vivo clearance using physiology based scaling factor (PBSF): CLint in vivo= CLint in vitro *PBSF: (microsome protein/gram liver) * (gram liver/kg b.w.), with PBSF: 47 (mouse), 47(rat), 58 (dog), 32 (human); and liver weight proportions: 54.9 (mouse), 36.6 (rat), 32.9 (dog) 25.7 (human).

Series [2] in a line: Microsomal stability, mouse. Particulars: mouse microsomes; for CLint in vitro: independent replicate to Table 4; for CLint in vivo: scaled up using PBSF. The method, then: as §1, §2
A short description of series [3]: Microsomal stability, rat. Particulars: rat microsomes; for CLint in vitro: independent replicate to Table 4; for CLint in vivo: scaled up using PBSF. How it is done: as §1, §2
The nature of series [4]: Microsomal stability, dog. Particulars: dog microsomes; for CLint in vitro: independent replicate to Table 4; for CLint in vivo: scaled up using PBSF. How it is done:
as §1, §2

Take `N#Cc1cc(NC(=O)[C@@H]2c3ccccc3C(=O)N(CC(F)(F)F)[C@H]2c2cccnc2)ccc1F` [(-)-SJ733]: the CLint in series [1] (0.8 µM) is given as 61.7 ± 13.2 µl/min/mg protein; in series [2] (0.8 µM) it was 32.1 ± 2.1 µl/min/mg protein; in series [3] (0.8 µM), < 7 µl/min/mg protein; in series [4] (0.8 µM) it was 10.9 ± 1.5 µl/min/mg protein. The t1/2 in series [1] (0.8 µM) is given as 0.4 ± 0.1 h; in series [2] (0.8 µM), 0.8 ± 0.1 h; in series [3] (0.8 µM), > 4 h; in series [4] (0.8 µM) it was 2.2 ± 0.4 h. Also, the CLint in vitro in series [1] (0.8 µM) came to 52.4 ± 1.1 µl/min/mg protein; in series [1] (4 µM) it was 40.4 ± 0.9 µl/min/mg protein; in series [1] (20 µM), 25.3 ± 0.4 µl/min/mg protein; in series [2] (0.8 µM), 30.6 ± 1.4 µl/min/mg protein; in series [2] (4 µM), 26.9 ± 0.6 µl/min/mg protein; in series [2] (20 µM), 10.5 ± 0.4 µl/min/mg protein. Also, the CLint in vitro in series [3] (0.8 µM) is <7 µl/min/mg protein; in series [3] (4 µM) it was <7 µl/min/mg protein; in series [3] (20 µM), <7 µl/min/mg protein; in series [4] (0.8 µM) it was 9.8 ± 0.4 µl/min/mg protein; in series [4] (4 µM) it was 9.5 ± 0.3 µl/min/mg protein; in series [4] (20 µM), 6.0 ± 0.4 µl/min/mg protein. For the same compound, the CLint in vivo in series [1] (0.8 µM) was 47.2 ± 1.0 mL/min/kg; in series [1] (4 µM), 36.4 ± 0.8 mL/min/kg; in series [1] (20 µM) it was 22.7 ± 0.3 mL/min/kg; in series [2] (0.8 µM), 71.7 ± 3.4 mL/min/kg; in series [2] (4 µM), 63.0 ± 2.1 mL/min/kg; in series [3] (0.8 µM) it was <11.7 mL/min/kg. In addition, the CLint in vivo in series [3] (4 µM) was <11.7 mL/min/kg; in series [3] (20 µM), <11.7 mL/min/kg; in series [4] (0.8 µM) it was 14.1 ± 0.5 mL/min/kg; in series [4] (4 µM) it was 13.7 ± 0.5 mL/min/kg; in series [4] (20 µM), 8.6 ± 0.6 mL/min/kg.

On to `N#Cc1cc(NC(=O)[C@@H]2c3ccccc3C(=O)N(CC(F)(F)F)[C@H]2c2cn[nH]c2)ccc1F` [(−)-SJ311], for which the CLint in series [1] (0.8 µM), in series [2] (0.8 µM), in series [3] (0.8 µM) and in series [4] (0.8 µM) was < 7 µl/min/mg protein in each case. Also, the t1/2 in series [1] (0.8 µM), in series [2] (0.8 µM), in series [3] (0.8 µM) and in series [4] (0.8 µM) was > 4 h throughout.
